Reference: US20230391760A1, “HETEROCYCLIC GLP-1 AGONISTS” (Gasherbrum Bio, Inc., priority 2020, published 2023)
pEC50: −log10 of the molar value.

Biological target: GLP-1 Receptor (Homo sapiens, UniProt P43220)
Assay: GLP-1R agonist cAMP stimulation assay (HEK293/GLP1R/CRE-LUC cells, cAMP dynamic 2 Kit)
Assay type: cell-based
Details: HEK293/CRE-Luc cell line stably expressing the GLP-1 Receptor, 30 min at 37° C.
Experimental: Activation of GLP-1 receptor is known to stimulate cyclic AMP (cAMP) production in cells which indicates primary coupling to the Gαs subunit of the G protein heterotrimeric complex. […] To optimize functional activity directed toward Gαs coupling, a HEK293/CRE-Luc cell line developed by HDB stably expressing the GLP-1 Receptor was used. 200×concentration of compound working solutions were prepared (Agilent Technologies Bravo) with 1/2 log serial dilution in 384-well Echo LDV plate (Labcyte, Cat #LP-0200). 50 nL/well 200× concentration of compound working solutions were moved to 384-well white low volume plate (Greiner,Cat #784075) using Labcyte ECHO550. 1×10^5 cells/mL HEK293/GLP1R/CRE-LUC(HD Biosciences) cell suspensions prepared with assay buffer[DPBS containing 0.5 mM IBMX(Sigma, Cat #15879) and 0.1% BSA (GENVIEW, Cat #FA016-100 g)], 10 uL cell suspensions were added to each well of previous generated assay plate which already contains 50 nl compound at 200×concentration using ThermoFisher Multidrop Combi (1000 cells/well). Seal the plate and incubate at 37° C. with 5% CO2 for 30 min. After incubation the cAMP assay signal was generated using cAMP dynamic 2 Kit (Cisbio). 5 μL cAMP-d2 working solution was added to each well, followed with 5 μL Anti-cAMP antibody-cryptate working solution added to each well using ThermoFisher Multidrop Combi. Incubate at room temperature for 1 hour protected from light.

Sequence of GLP-1 Receptor (P43220 24-463, species assumed): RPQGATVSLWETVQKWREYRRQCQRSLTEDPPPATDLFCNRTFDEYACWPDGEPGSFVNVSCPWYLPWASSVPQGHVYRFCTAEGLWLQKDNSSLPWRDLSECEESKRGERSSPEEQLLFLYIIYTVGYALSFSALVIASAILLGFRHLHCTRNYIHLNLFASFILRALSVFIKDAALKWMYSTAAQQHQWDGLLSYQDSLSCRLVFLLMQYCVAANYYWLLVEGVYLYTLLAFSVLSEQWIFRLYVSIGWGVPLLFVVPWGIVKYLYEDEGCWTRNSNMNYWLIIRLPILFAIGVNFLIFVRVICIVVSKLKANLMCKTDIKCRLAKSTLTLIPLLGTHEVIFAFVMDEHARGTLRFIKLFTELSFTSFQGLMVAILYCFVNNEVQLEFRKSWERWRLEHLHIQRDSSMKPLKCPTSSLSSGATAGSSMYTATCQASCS

Compound | pEC50
CC1(c2ccc(F)cc2)Oc2cccc(C3CCN(Cc4nc5cc(-c6nnc(C(F)(F)F)[nH]6)ccc5n4C[C@@H]4CCO4)CC3)c2O1 (stereo partly drawn) [Compound 258a, 2-({4-[2-(4-fluorophenyl)-2-methyl-2H-1,3-benzodioxol-4-yl]piperidin-1-yl}methyl)-1-{[(2S)-oxetan-2-yl]methyl}-5-[5-(trifluoromethyl)-4H-1,2,4-triazol-3-yl]-1H-1,3-benzodiazole] | 9.80
CC1(c2ccc(Cl)cc2F)Oc2cccc(C3CCN(Cc4nc5cc(-c6nnc(C(F)(F)F)[nH]6)cnc5n4C[C@H]4CCCO4)CC3)c2O1 (stereo partly drawn) [Compound 245a, 4-[2-(4-chloro-2-fluorophenyl)-2-methyl-2H-1,3-benzodioxol-4-yl]-1-[(3-{[(2R)-oxolan-2-yl]methyl}-6-[5-(trifluoromethyl)-4H-1,2,4-triazol-3-yl]-3H-imidazo[4,5-b]pyridin-2-yl)methyl]piperidine] | 8.59
CCc1ccc(C(=O)Nc2ccc3c(c2)nc(CN2CCC(c4cccc(OCc5ccc(Cl)cc5F)n4)CC2)n3C[C@@H]2CCO2)cn1 [Compound 174a, N-{2-[(4-{6-[(4-chloro-2-fluorophenyl)methoxy]pyridin-2-yl}piperidin-1-yl)methyl]-1-{[(2S)-oxetan-2-yl]methyl}-1H-1,3-benzodiazol-5-yl}-6-ethylpyridine-3-carboxamide] | 9.25
COC1(C(=O)Nc2ccc3c(c2)nc(CN2CCC(c4cccc(OCc5ccc(Cl)cc5F)n4)CC2)n3C[C@@H]2CCO2)CCCOC1 (stereo partly drawn) [Compound 196a, N-{2-[(4-{6-[(4-chloro-2-fluorophenyl)methoxy]pyridin-2-yl}piperidin-1-yl)methyl]-1-{[(2S)-oxetan-2-yl]methyl}-1H-1,3-benzodiazol-5-yl}-3-methoxyoxane-3-carboxamide] | 8.96
O=C(Nc1ccc2c(c1)nc(CN1CCC(c3cccc(OCc4ccc(Cl)cc4F)n3)CC1)n2C[C@@H]1CCO1)C1COCCO1 (stereo partly drawn) [Compound 172a, N-{2-[(4-{6-[(4-chloro-2-fluorophenyl)methoxy]pyridin-2-yl}piperidin-1-yl)methyl]-1-{[(2S)-oxetan-2-yl]methyl}-1H-1,3-benzodiazol-5-yl}-1,4-dioxane-2-carboxamide] | 9.51
O=C(Nc1ccc2c(c1)nc(CN1CCC(c3cccc(OCc4ccc(Cl)cc4F)n3)CC1)n2C[C@@H]1CCO1)C1CCCC1 [Compound 151a, N-{2-[(4-{6-[(4-chloro-2-fluorophenyl)methoxy]pyridin-2-yl}piperidin-1-yl)methyl]-1-{[(2S)-oxetan-2-yl]methyl}-1H-1,3-benzodiazol-5-yl}cyclopentanecarboxamide] | 9.10
CC1(c2ccc(F)cc2F)Oc2cccc(C3CCN(Cc4nc5cc(-c6nnc(C(F)(F)F)[nH]6)ccc5n4C[C@@H]4CCO4)CC3)c2O1 (stereo partly drawn) [Compound 259a, 2-({4-[2-(2,4-difluorophenyl)-2-methyl-2H-1,3-benzodioxol-4-yl]piperidin-1-yl}methyl)-1-{[(2S)-oxetan-2-yl]methyl}-5-[5-(trifluoromethyl)-4H-1,2,4-triazol-3-yl]-1H-1,3-benzodiazole] | 10.13
CC1(c2ccc(Cl)cc2F)Oc2cccc(C3CCN(Cc4nc5cc(-c6nnc(S(C)(=O)=O)[nH]6)ccc5n4C[C@@H]4CCO4)CC3)c2O1 (stereo partly drawn) [Compound 253a, 2-({4-[2-(4-chloro-2-fluorophenyl)-2-methyl-2H-1,3-benzodioxol-4-yl]piperidin-1-yl}methyl)-5-(5-methanesulfonyl-4H-1,2,4-triazol-3-yl)-1-{[(2S)-oxetan-2-yl]methyl}-1H-1,3-benzodiazole] | 9.19

The remaining lines, values ahead:

pEC50 | Compound
9.01 | CC1(c2ccc(Cl)cc2)Oc2cccc(C3CCN(Cc4nc5cc(-c6noc(=O)[nH]6)cnc5n4C[C@@H]4CCO4)CC3)c2O1 (stereo partly drawn) [Compound 330a, 3-[2-({4-[2-(4-chlorophenyl)-2-methyl-2H-1,3-benzodioxol-4-yl]piperidin-1-yl}methyl)-3-{[(2S)-oxetan-2-yl]methyl}-3H-imidazo[4,5-b]pyridin-6-yl]-4,5-dihydro-1,2,4-oxadiazol-5-one]
9.85 | CC1(c2ccc(Cl)cn2)Oc2cccc(C3CCN(Cc4nc5cc(-c6nnc(C(F)(F)F)[nH]6)ccc5n4CC4(C#N)CC4)CC3)c2O1 (stereo not shown) [Compound 415, 1-{[2-({4-[2-(5-chloropyridin-2-yl)-2-methyl-2H-1,3-benzodioxol-4-yl]piperidin-1-yl}methyl)-5-[5-(trifluoromethyl)-4H-1,2,4-triazol-3-yl]-1H-1,3-benzodiazol-1-yl]methyl}cyclopropane-1-carbonitrile]
10.11 | Fc1cc(Cl)ccc1COc1cccc(C2CCN(Cc3nc4cc(-c5nnc(C(F)(F)F)[nH]5)cnc4n3C[C@@H]3CCO3)CC2F)n1 (stereo partly drawn) [Compound 500a, 2-[(4-chloro-2-fluorophenyl)methoxy]-6-[(3,4-trans)-3-fluoro-1-[(3-{[(2S)-oxetan-2-yl]methyl}-6-[5-(trifluoromethyl)-4H-1,2,4-triazol-3-yl]-3H-imidazo[4,5-b]pyridin-2-yl)methyl]piperidin-4-yl]pyridine]
9.12 | CO[C@H](C)Cn1c(CN2CCC(c3cccc4c3OC(C)(c3ccc(Cl)cn3)O4)CC2)nc2cc(-c3noc(=O)[nH]3)ncc21 (stereo partly drawn) [Compound 427a, 3-[2-({4-[2-(5-chloropyridin-2-yl)-2-methyl-2H-1,3-benzodioxol-4-yl]piperidin-1-yl}methyl)-3-[(2R)-2-methoxypropyl]-3H-imidazo[4,5-c]pyridin-6-yl]-4,5-dihydro-1,2,4-oxadiazol-5-one]
9.96 | C[C@]1(c2ccc(Cl)cc2F)Oc2cccc(C3CCN(Cc4nc5cc(C(=O)O)nnc5n4C[C@@H]4CCO4)CC3)c2O1 [Compound 431a, 6-({4-[(2S)-2-(4-chloro-2-fluorophenyl)-2-methyl-2H-1,3-benzodioxol-4-yl]piperidin-1-yl}methyl)-7-{[(2S)-oxetan-2-yl]methyl}-7H-imidazo[4,5-c]pyridazine-3-carboxylic acid]
9.29 | Fc1cc(Cl)ccc1COc1cc(N2CCN(Cc3nc4cc(-c5nnc(C(F)(F)F)[nH]5)nnc4n3C[C@@H]3CCO3)CC2)ccc1F [Compound 483a, 1-{3-[(4-chloro-2-fluorophenyl)methoxy]-4-fluorophenyl}-4-[(7-{[(2S)-oxetan-2-yl]methyl}-3-[5-(trifluoromethyl)-4H-1,2,4-triazol-3-yl]-7H-imidazo[4,5-c]pyridazin-6-yl)methyl]piperazine]
10.02 | CO[C@H](C)Cn1c(CN2CCC(c3cccc4c3O[C@@](C)(c3ccc(Cl)cc3F)O4)CC2)nc2cc(-c3nnc(C(F)(F)F)[nH]3)ncc21 [Compound 418a, 4-[(2S)-2-(4-chloro-2-fluorophenyl)-2-methyl-2H-1,3-benzodioxol-4-yl]-1-({3-[(2R)-2-methoxypropyl]-6-[5-(trifluoromethyl)-4H-1,2,4-triazol-3-yl]-3H-imidazo[4,5-c]pyridin-2-yl}methyl)piperidine]
9.34 | CO[C@H](C)Cn1c(CN2CCC(c3cccc4c3O[C@@](C)(c3ccc(Cl)cn3)O4)CC2)nc2cc(-c3nnc(C(F)(F)F)[nH]3)nnc21 [Compound 473a, 5-chloro-2-[(2S)-4-[1-({7-[(2R)-2-methoxypropyl]-3-[5-(trifluoromethyl)-4H-1,2,4-triazol-3-yl]-7H-imidazo[4,5-c]pyridazin-6-yl}methyl)piperidin-4-yl]-2-methyl-2H-1,3-benzodioxol-2-yl]pyridine]
